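Results reflect a 48-hour exposure of cells in 96-well plates to compound at five concentrations. TGI: concentration producing complete growth inhibition.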
Tests used:
Assay in all cases: growth of human tumour cells (NCI), 48 h
K-562 leukemia = test system: K-562 leukemia
NCI/ADR-RES ovarian = test system: NCI/ADR-RES ovarian
SNB-19 CNS = test system: SNB-19 CNS
CAKI-1 renal = test system: CAKI-1 renal
DU-145 prostate = test system: DU-145 prostate
EKVX NSCLC = test system: EKVX NSCLC
SF-539 CNS = test system: SF-539 CNS
MDA-N = test system: MDA-N
A498 renal = test system: A498 renal
PC-3 prostate = test system: PC-3 prostate
NCI-H23 lung = test system: NCI-H23 lung
COLO 205 colon = test system: COLO 205 colon
SK-MEL-2 melanoma = test system: SK-MEL-2 melanoma
SW-620 colon = test system: SW-620 colon
NCI-H522 lung = test system: NCI-H522 lung
A549 NSCLC = test system: A549 NSCLC
MCF7 breast = test system: MCF7 breast
OVCAR-4 ovarian = test system: OVCAR-4 ovarian
OVCAR-8 ovarian = test system: OVCAR-8 ovarian
T-47D breast = test system: T-47D breast
ACHN renal = test system: ACHN renal
RPMI-8226 leukemia = test system: RPMI-8226 leukemia
OVCAR-5 ovarian = test system: OVCAR-5 ovarian
SNB-75 CNS = test system: SNB-75 CNS
SK-MEL-5 melanoma = test system: SK-MEL-5 melanoma
MOLT-4 leukemia = test system: MOLT-4 leukemia
NCI-H460 lung = test system: NCI-H460 lung
HCT-116 colon = test system: HCT-116 colon
MDA-MB-435 = test system: MDA-MB-435
LOX IMVI melanoma = test system: LOX IMVI melanoma
IGROV1 ovarian = test system: IGROV1 ovarian
CCRF-CEM leukemia = test system: CCRF-CEM leukemia
MDA-MB-231 breast = test system: MDA-MB-231 breast
TK-10 renal = test system: TK-10 renal
HS 578T breast = test system: HS 578T breast
HL-60(TB) leukemia = test system: HL-60(TB) leukemia
NCI-H226 lung = test system: NCI-H226 lung
M14 melanoma = test system: M14 melanoma
HOP-62 NSCLC = test system: HOP-62 NSCLC
UACC-62 melanoma = test system: UACC-62 melanoma
UACC-257 melanoma = test system: UACC-257 melanoma
SK-OV-3 ovarian = test system: SK-OV-3 ovarian
BT-549 breast = test system: BT-549 breast
SN12C renal = test system: SN12C renal
786-0 renal = test system: 786-0 renal
HT29 colon = test system: HT29 colon
U251 CNS = test system: U251 CNS
KM12 colon = test system: KM12 colon
HOP-92 NSCLC = test system: HOP-92 NSCLC
MALME-3M melanoma = test system: MALME-3M melanoma
HCT-15 colon = test system: HCT-15 colon
RXF 393 renal = test system: RXF 393 renal
SF-295 CNS = test system: SF-295 CNS
SK-MEL-28 melanoma = test system: SK-MEL-28 melanoma
SF-268 CNS = test system: SF-268 CNS
OVCAR-3 ovarian = test system: OVCAR-3 ovarian
HCC-2998 colon = test system: HCC-2998 colon
UO-31 renal = test system: UO-31 renal

## O=C1NC(N/N=C/C(O)C(O)C(O)C(O)CO)=N/C1=C\c1ccco1 (stereo not drawn)
K-562 leukemia
  TGI: > 100 µM
NCI/ADR-RES ovarian
  TGI: > 100 µM
SNB-19 CNS
  TGI: > 100 µM
CAKI-1 renal
  TGI: > 100 µM
DU-145 prostate
  TGI: > 100 µM
EKVX NSCLC
  TGI: > 100 µM
SF-539 CNS
  TGI: > 100 µM
MDA-N
  TGI: > 100 µM
A498 renal
  TGI: > 100 µM
PC-3 prostate
  TGI: > 100 µM
NCI-H23 lung
  TGI: > 100 µM
COLO 205 colon
  TGI: > 100 µM
SK-MEL-2 melanoma
  TGI: > 100 µM
SW-620 colon
  TGI: > 100 µM
NCI-H522 lung
  TGI: > 100 µM
A549 NSCLC
  TGI: > 100 µM
MCF7 breast
  TGI: > 100 µM
OVCAR-4 ovarian
  TGI: > 100 µM
OVCAR-8 ovarian
  TGI: > 100 µM
T-47D breast
  TGI: > 100 µM
ACHN renal
  TGI: > 100 µM
RPMI-8226 leukemia
  TGI: > 100 µM
OVCAR-5 ovarian
  TGI: > 100 µM
SNB-75 CNS
  TGI: > 100 µM
SK-MEL-5 melanoma
  TGI: > 100 µM
MOLT-4 leukemia
  TGI: > 100 µM
NCI-H460 lung
  TGI: > 100 µM
HCT-116 colon
  TGI: > 100 µM
MDA-MB-435
  TGI: > 100 µM
LOX IMVI melanoma
  TGI: > 100 µM
IGROV1 ovarian
  TGI: > 100 µM
CCRF-CEM leukemia
  TGI: > 100 µM
MDA-MB-231 breast
  TGI: > 100 µM
TK-10 renal
  TGI: > 100 µM
HS 578T breast
  TGI: > 100 µM
HL-60(TB) leukemia
  TGI: > 100 µM
NCI-H226 lung
  TGI: > 100 µM
M14 melanoma
  TGI: > 100 µM
HOP-62 NSCLC
  TGI: > 100 µM
UACC-62 melanoma
  TGI: > 100 µM
UACC-257 melanoma
  TGI: > 100 µM
SK-OV-3 ovarian
  TGI: > 100 µM
BT-549 breast
  TGI: > 100 µM
SN12C renal
  TGI: > 100 µM
786-0 renal
  TGI: > 100 µM
HT29 colon
  TGI: > 100 µM
U251 CNS
  TGI: > 100 µM
KM12 colon
  TGI: > 100 µM
HOP-92 NSCLC
  TGI: > 100 µM
MALME-3M melanoma
  TGI: > 100 µM
HCT-15 colon
  TGI: > 100 µM
RXF 393 renal
  TGI: > 100 µM
SF-295 CNS
  TGI: > 100 µM
SK-MEL-28 melanoma
  TGI: > 100 µM
SF-268 CNS
  TGI: > 100 µM
OVCAR-3 ovarian
  TGI: > 100 µM

## O=C(C1OC1c1ccc(Cl)cc1)C12CC3CC(CC(C3)C1)C2 (stereo not drawn)
K-562 leukemia
  TGI: 51.2 µM
NCI/ADR-RES ovarian
  TGI: 49 µM
SNB-19 CNS
  TGI: > 100 µM
CAKI-1 renal
  TGI: 67.5 µM
DU-145 prostate
  TGI: > 100 µM
EKVX NSCLC
  TGI: 56.3 µM
SF-539 CNS
  TGI: 32.5 µM
MDA-N
  TGI: 36.6 µM
A498 renal
  TGI: 46.7 µM
PC-3 prostate
  TGI: 79.9 µM
NCI-H23 lung
  TGI: 38.4 µM
COLO 205 colon
  TGI: 35.7 µM
SK-MEL-2 melanoma
  TGI: 43.6 µM
SW-620 colon
  TGI: 44.6 µM
NCI-H522 lung
  TGI: 42.5 µM
A549 NSCLC
  TGI: 48.5 µM
MCF7 breast
  TGI: 73.9 µM
OVCAR-4 ovarian
  TGI: 40 µM
OVCAR-8 ovarian
  TGI: 32.9 µM
T-47D breast
  TGI: > 100 µM
ACHN renal
  TGI: 90.1 µM
OVCAR-5 ovarian
  TGI: 50.8 µM
SNB-75 CNS
  TGI: 96.1 µM
SK-MEL-5 melanoma
  TGI: 28.6 µM
MOLT-4 leukemia
  TGI: 51.9 µM
NCI-H460 lung
  TGI: 31.8 µM
HCT-116 colon
  TGI: 28.8 µM
MDA-MB-435
  TGI: 33.1 µM
LOX IMVI melanoma
  TGI: 16.6 µM
HCC-2998 colon
  TGI: 35.4 µM
IGROV1 ovarian
  TGI: 67.4 µM
CCRF-CEM leukemia
  TGI: 52.3 µM
MDA-MB-231 breast
  TGI: 54.8 µM
UO-31 renal
  TGI: 41.9 µM
TK-10 renal
  TGI: > 100 µM
HS 578T breast
  TGI: 73.9 µM
HL-60(TB) leukemia
  TGI: 42.6 µM
NCI-H226 lung
  TGI: 38.5 µM
M14 melanoma
  TGI: 38.1 µM
HOP-62 NSCLC
  TGI: 56.5 µM
UACC-62 melanoma
  TGI: 45.1 µM
UACC-257 melanoma
  TGI: 54.7 µM
SK-OV-3 ovarian
  TGI: 74 µM
BT-549 breast
  TGI: 52.1 µM
SN12C renal
  TGI: 32.2 µM
786-0 renal
  TGI: 30.7 µM
HT29 colon
  TGI: 41.9 µM
U251 CNS
  TGI: 29.2 µM
KM12 colon
  TGI: 41 µM
HOP-92 NSCLC
  TGI: 39 µM
MALME-3M melanoma
  TGI: 69.8 µM
HCT-15 colon
  TGI: 82 µM
RXF 393 renal
  TGI: 39.2 µM
SF-295 CNS
  TGI: 58.6 µM
SK-MEL-28 melanoma
  TGI: 32.5 µM
SF-268 CNS
  TGI: 53 µM
OVCAR-3 ovarian
  TGI: 30 µM

— PubChem BioAssay (NCI)
